Results reported in the supplement of paper PMC13380429.

Assays:
[1] = test system: HepG2; assay: cell viability relative to DMSO; higher = less toxic; settings: 72 h
[2] = test system: Calu-3; assay: as above; settings: 72 h
[3] = test system: Vero E6; assay: as above; settings: 72 h
[4] = test system: Caco-2; assay: as above; settings: 72 h
[5] = test system: HepG2; assay: drug sensitivity score (DSS) for viability; higher = more toxic; extreme values may be limits of the assay; settings: 72 h
[6] = test system: Calu-3; assay: as above; settings: 72 h
[7] = test system: Vero E6; assay: as above; settings: 72 h
[8] = test system: Caco-2; assay: as above; settings: 72 h
[9] = test system: HepG2; assay: relative viability EC50 (midpoint between 100% and the lowest measured viability); higher = less toxic; settings: 72 h
[10] = test system: Vero E6; assay: as above; settings: 72 h
[11] = test system: A549-ACE2 infected with SARS-CoV-2; assay: SARS-CoV-2 infection rate relative to DMSO; higher = more infection; settings: 24 h
[12] = test system: A549-ACE2 infected with SARS-CoV-2; assay: cell count relative to DMSO; higher = less toxic; settings: 24 h
[13] = test system: A549-ACE2 infected with SARS-CoV-2; assay: morphology score (similarity to uninfected cells); higher = more like uninfected cells; settings: 24 h
[14] = test system: A549-ACE2; assay: drug-induced phospholipidosis relative to tamoxifen; higher = more phospholipidosis
[15] = test system: U2OS; assay: cell viability relative to DMSO; higher = less toxic; settings: 72 h
[16] = test system: U2OS; assay: drug sensitivity score (DSS) for viability; higher = more toxic; extreme values may be limits of the assay; settings: 72 h
[17] = test system: U2OS; assay: relative viability EC50 (midpoint between 100% and the lowest measured viability); higher = less toxic; settings: 72 h
[18] = test system: Calu-3; assay: as above; settings: 72 h
[19] = test system: Caco-2; assay: as above; settings: 72 h

O=c1cc(N2CCOCC2)oc2c(-c3cccc4c3sc3ccccc34)cccc12 [NU-7441]
Settings | SARS-CoV-2 infection rate, [11] [%] | cell count, [12] [%] | cell viability, [1] [%] | cell viability, [2] [%] | cell viability, [3] [%] | cell viability, [4] [%] | morphology score, [13]
1 nM | – | – | 108 | 101 | 104 | 109 | –
10 nM | – | – | 108 | 110 | 102 | 89.2 | –
100 nM | – | – | 116 | 98.7 | 102 | 100 | –
0.1 µM | 101 | 96 | – | – | – | – | -0.14
0.3 µM | 101 | 94 | – | – | – | – | -0.23
1000 nM | – | – | 88.4 | 111 | 85.4 | 71.2 | –
1 µM | 74 | 105 | – | – | – | – | 0.22
3 µM | 38 | 98 | – | – | – | – | 0.53
10000 nM | – | – | 32.7 | 61 | 14.4 | 56.9 | –

Settings | drug sensitivity score | relative viability EC50 [nM]
[5] | 5.6 | –
[6] | 1.4 | –
[7] | 7.2 | –
[8] | 5.6 | –
[9] | – | 1870
[10] | – | 1870

drug-induced phospholipidosis [%], [14]
Settings | 0.3 µM | 0.833333 µM | 3.33333 µM | 6.66667 µM | 10 µM | 30 µM
24 h | -4.01 | -8.02 | 17.6 | 23.6 | 28.1 | 26.9
48 h | -3.93 | -5.23 | 26.4 | – | – | –
72 h | -2.08 | -7.5 | – | – | – | –

C=C1C(=O)[C@]23[C@H](O)[C@H]1CC[C@H]2[C@@]12CO[C@]3(O)[C@@H](O)[C@@H]1C(C)(C)CC[C@@H]2O [Oridonin (Isodonol)]
Settings | SARS-CoV-2 infection rate, [11] [%] | cell count, [12] [%] | cell viability, [1] [%] | cell viability, [3] [%] | cell viability, [4] [%] | cell viability, [15] [%] | morphology score, [13]
1 nM | – | – | 97.4 | 99.9 | 97.7 | 102 | –
10 nM | – | – | 103 | 98.7 | 107 | 95.1 | –
100 nM | – | – | 91.8 | 97.9 | 103 | 98.3 | –
0.1 µM | 100 | 94 | – | – | – | – | -0.14
0.3 µM | 99 | 101 | – | – | – | – | -0.02
1000 nM | – | – | 96.2 | 95.4 | 93.3 | 94.4 | –
1 µM | 104 | 99 | – | – | – | – | -0.18
3 µM | 101 | 98 | – | – | – | – | -0.01
10000 nM | – | – | 42.8 | 79.7 | 65.4 | 11.8 | –

Settings | drug sensitivity score | relative viability EC50 [nM]
[5] | 3.7 | –
[7] | 1.2 | –
[8] | 2.7 | –
[9] | – | 2630
[10] | – | > 10000
[16] | 5.7 | –
[17] | – | 2660

drug-induced phospholipidosis [%], [14]
Settings | 0.3 µM | 0.833333 µM | 3.33333 µM | 6.66667 µM | 10 µM | 30 µM
24 h | 5.1 | -1.43 | 0.65 | 11 | 16.8 | 43.1
48 h | 5.34 | -3.46 | -0.285 | 6.67 | 13 | –
72 h | 4.41 | -5.79 | -4.81 | -1.61 | 4.49 | –

COC(=O)[C@@]12OC[C@]34[C@H]([C@@H](O)[C@@H]1O)[C@@]1(C)CC(=O)C(O)=C(C)[C@@H]1C[C@H]3OC(=O)[C@H](OC(=O)/C=C(\C)C(C)C)[C@@H]24 [bruceantin]
Settings | SARS-CoV-2 infection rate, [11] [%] | cell count, [12] [%] | cell viability, [1] [%] | cell viability, [2] [%] | cell viability, [3] [%] | cell viability, [4] [%] | cell viability, [15] [%] | morphology score, [13]
1 nM | – | – | 92.8 | 96.7 | 101 | 102 | 103 | –
10 nM | – | – | 76.2 | 102 | 104 | 78.4 | 58.3 | –
100 nM | – | – | 13.8 | 41.4 | 59.1 | 37.7 | 9 | –
0.1 µM | 12 | 62 | – | – | – | – | – | 0.3
0.3 µM | 16 | 62 | – | – | – | – | – | 0.26
1000 nM | – | – | 4.6 | 26.5 | 11.4 | 25.5 | 1.8 | –
1 µM | 20 | 54 | – | – | – | – | – | 0.24
3 µM | 12 | 38 | – | – | – | – | – | 0.33
10000 nM | – | – | 0.9 | 21 | 2.5 | 22.4 | 0.1 | –

Settings | drug sensitivity score | relative viability EC50 [nM]
[5] | 31 | –
[6] | 21.3 | –
[7] | 21.5 | –
[8] | 23.9 | –
[9] | – | 23.8
[10] | – | 132
[16] | 34.5 | –
[17] | – | 13.3
[18] | – | 65.9
[19] | – | 26.1

CC[C@H]1CN2CCc3cc(OC)c(OC)cc3[C@@H]2C[C@@H]1C[C@H]1NCCc2cc(OC)c(OC)cc21 [emetine]
Settings | SARS-CoV-2 infection rate, [11] [%] | cell count, [12] [%] | cell viability, [1] [%] | cell viability, [2] [%] | cell viability, [3] [%] | cell viability, [15] [%] | morphology score, [13]
1 nM | – | – | 91.7 | 105 | 94.3 | 101 | –
10 nM | – | – | 97.8 | 109 | 103 | 99.7 | –
100 nM | – | – | 26.1 | 99.7 | 54.9 | 43.5 | –
0.1 µM | 5 | 102 | – | – | – | – | 0.87
0.3 µM | 5 | 91 | – | – | – | – | 0.7
1000 nM | – | – | 14.5 | 35.3 | 14 | 7 | –
1 µM | 19 | 69 | – | – | – | – | 0.44
3 µM | 23 | 59 | – | – | – | – | 0.43
10000 nM | – | – | 4.5 | 30.8 | 6.9 | 2 | –

Settings | drug sensitivity score | relative viability EC50 [nM]
[5] | 26.2 | –
[6] | 12 | –
[7] | 21.9 | –
[9] | – | 54.3
[10] | – | 107
[16] | 24.3 | –
[17] | – | 84.6
[18] | – | 375

[14], 24 h
Settings | drug-induced phospholipidosis [%]
0.3 µM | 3.73
0.833333 µM | 5.74

CC(=O)O[C@@H]1C[C@H]2C(C)(C)C(=O)C=C[C@]2(C)[C@H]2CC[C@@]3(C)[C@H](c4ccoc4)OC(=O)[C@H]4O[C@]43[C@@]21C [gedunin]
Settings | SARS-CoV-2 infection rate, [11] [%] | cell count, [12] [%] | cell viability, [1] [%] | cell viability, [2] [%] | cell viability, [3] [%] | cell viability, [4] [%] | cell viability, [15] [%] | morphology score, [13]
1 nM | – | – | 105 | 102 | 101 | 97.5 | 99.5 | –
10 nM | – | – | 93.8 | 103 | 102 | 94.6 | 100 | –
100 nM | – | – | 103 | 115 | 102 | 102 | 95.7 | –
0.3 µM | 107 | 101 | – | – | – | – | – | 0.03
1000 nM | – | – | 94.9 | 97.2 | 94.3 | 103 | 100 | –
3 µM | 95 | 96 | – | – | – | – | – | 0.18
10000 nM | – | – | 80.6 | 102 | 86.6 | 86.8 | 95.4 | –
10 µM | 98 | 108 | – | – | – | – | – | 0.06
30 µM | 85 | 103 | – | – | – | – | – | 0.52

Settings | drug sensitivity score | relative viability EC50 [nM]
[5] | 1.2 | –
[6] | 0 | –
[7] | 0.5 | –
[8] | 0.1 | –
[9] | – | > 10000
[10] | – | > 10000
[16] | 0 | –
[17] | – | > 10000
[18] | – | > 10000
[19] | – | > 10000

drug-induced phospholipidosis [%], [14]
Settings | 0.3 µM | 0.833333 µM | 3.33333 µM | 6.66667 µM | 10 µM | 30 µM
24 h | 2.13 | 1.52 | 8.1 | 16.6 | 23.3 | 40.1
48 h | 7.32 | 5.06 | 10.1 | 18 | 24.2 | 37.8
72 h | 7.41 | 2.35 | 7.47 | 17 | 21.7 | 40.6
